Measurements taken from ChEMBL document CHEMBL1137267, “Novel aminobenzimidazoles as selective MCH-R1 antagonists for the treatment of metabolic diseases” (Bioorg Med Chem Lett, 2006).
Calls of active or inactive are those of the source. No cut-off for these calls is given here.

Assays:
[1] = biological target: T1, Melanin-concentrating hormone receptor 1 (Homo sapiens, UniProt Q99705); assay: Binding activity against human MCH-R1
Mus musculus [2] = assay: Inhibition of ex vivo MCH-ADO binding in mice 6 hours after 30mg/kg peroral dose; assay type: functional; conditions: po
[3] = AUC in rats following 10 mg/kg peroral dose; assay type: ADME, organism-based; design: dose 10 mg/kg, route oral; conditions: rat, plasma, po
Mus musculus [4] = assay: Inhibition of ex vivo MCH-ADO binding in mice 24 hours after 30 mg/kg peroral dose; assay type: functional; conditions: route oral
[5] = biological target: Melanin-concentrating hormone receptor 2 (Homo sapiens) (UniProt Q969V1); assay: Binding activity against human MCH-R2
Mus musculus [6] = species: Mus musculus; assay: Inhibition of cumulative food intake by fasted DIO mice at 24 hours; assay type: functional
Mus musculus [7] = species: Mus musculus; assay: Inhibition of cumulative food intake by fasted DIO mice at 2 hours; assay type: functional
Mus musculus [8] = species: Mus musculus; assay: Inhibition of cumulative food intake by fasted DIO mice at 6 hours; assay type: functional
Mus musculus [9] = species: Mus musculus; assay: Inhibition of cumulative food intake by fasted DIO mice at 4 hours; assay type: functional
[10] = biological target: T1, Melanin-concentrating hormone receptor 1; assay: Inhibition of MCH-mediated calcium influx into CHO cells expressing human MCH-R1by FLIPR assay; assay type: functional, cell-based

T1 sequence (Q99705 whole entry): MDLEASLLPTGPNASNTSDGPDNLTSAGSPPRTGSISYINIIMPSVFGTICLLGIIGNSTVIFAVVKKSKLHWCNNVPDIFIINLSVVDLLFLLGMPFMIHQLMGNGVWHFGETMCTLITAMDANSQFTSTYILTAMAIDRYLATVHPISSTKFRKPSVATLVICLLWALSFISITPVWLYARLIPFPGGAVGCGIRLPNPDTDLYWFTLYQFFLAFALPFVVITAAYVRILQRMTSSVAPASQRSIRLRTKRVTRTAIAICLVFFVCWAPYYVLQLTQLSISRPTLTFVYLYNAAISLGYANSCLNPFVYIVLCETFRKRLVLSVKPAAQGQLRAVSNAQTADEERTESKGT
Melanin-concentrating hormone receptor 2 (Homo sapiens), sequence (Q969V1 whole entry): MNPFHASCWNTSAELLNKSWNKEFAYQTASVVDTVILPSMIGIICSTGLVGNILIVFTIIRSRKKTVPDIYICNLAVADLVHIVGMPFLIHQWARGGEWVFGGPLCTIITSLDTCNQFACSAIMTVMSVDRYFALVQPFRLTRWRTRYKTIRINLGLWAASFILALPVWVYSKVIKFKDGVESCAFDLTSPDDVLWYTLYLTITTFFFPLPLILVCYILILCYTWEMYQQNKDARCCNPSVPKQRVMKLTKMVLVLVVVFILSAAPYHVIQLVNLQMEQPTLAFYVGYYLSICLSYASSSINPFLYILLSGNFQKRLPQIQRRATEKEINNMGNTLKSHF

SMILES	Ki [1] [µM]	inhibition in vivo at 30 mg/kg (Mus musculus [2]) [%]	inhibition in vivo at 30 mg/kg (Mus musculus [4]) [%]	inhibition [5]	further results
CS(=O)(=O)N1CCC(CN(c2nc3cc(F)c(F)cc3[nH]2)[C@@H]2CCC3(c4cccc(C#N)c4)C[C@@H]3C2)CC1 (single isomer, unassigned)	0.027	0	0	inactive	AUC [3]: 350 ng·h/mL
CN1CCN(CCCN(c2nc3cc(Cl)c(F)cc3[nH]2)[C@@H]2CCC3(c4cccc(C#N)c4)C[C@@H]3C2)CC1 (single isomer, unassigned)	0.0062			inactive	
CN1CCN(CCCN(c2nc3cc(F)c(F)cc3[nH]2)[C@@H]2CC[C@]3(c4cccc(C#N)c4)C[C@H]23)CC1	0.0207	75	33	inactive	AUC [3]: 1490 ng·h/mL
CO/N=C/c1cccc([C@]23CC[C@@H](N(CCCN4CCN(C)CC4)c4nc5cc(F)c(F)cc5[nH]4)C[C@H]2C3)c1	0.0282			inactive	
CN1CCN(CCCN(c2nc3cc(Cl)c(Cl)cc3[nH]2)[C@@H]2CCC3(c4cccc(C#N)c4)C[C@@H]3C2)CC1 (single isomer, unassigned)		81	97	inactive	Inhibition (Mus musculus [6]): 9%; Inhibition (Mus musculus [7]): 12%; Inhibition (Mus musculus [8]): 18%; AUC [3]: 965 ng·h/mL; Inhibition (Mus musculus [9]): 19%
CN1CCN(CCCN(c2nc3cc(Cl)c(F)cc3[nH]2)[C@@H]2CC[C@]3(c4cccc(C#N)c4)C[C@H]23)CC1	0.0056				AUC [3]: 1920 ng·h/mL
CN1CCN(CCCN(c2nc3cc(Cl)c(Cl)cc3[nH]2)[C@@H]2CC[C@]3(c4cccc(C#N)c4)C[C@H]23)CC1	0.0068	97	51	inactive	Kb [10]: 0.02 µM
CN1CCN(CCCN(c2nc3cc(F)c(Cl)cc3[nH]2)[C@@H]2CC[C@]3(c4ccc(C#N)cc4)C[C@H]23)CC1		100	81	inactive	
CC(C)(C)OC(=O)N1CCC(CN(c2nc3cc(Cl)c(Cl)cc3[nH]2)[C@@H]2CCC3(c4cccc(C#N)c4)C[C@@H]3C2)CC1 (single isomer, unassigned)	1.14			inactive	
CN1CCN(CCCN(c2nc3cc(F)c(F)cc3[nH]2)[C@@H]2CCC3(c4cccc(CN5CCOCC5)c4)C[C@@H]3C2)CC1 (single isomer, unassigned)	0.0213			inactive	
CN1CCN(CCCN(c2nc3cc(Cl)c(Cl)cc3[nH]2)[C@@H]2CCC3(c4cccc(C=O)c4)C[C@@H]3C2)CC1 (single isomer, unassigned)	0.0137			inactive	
CN(C)Cc1cccc(C23CC[C@@H](N(CCCN4CCN(C)CC4)c4nc5cc(Cl)c(Cl)cc5[nH]4)C[C@H]2C3)c1 (single isomer, unassigned)	0.0049			inactive	
CN(C)Cc1cccc(C23CC[C@@H](N(CCCN4CCN(C)CC4)c4nc5cc(F)c(F)cc5[nH]4)C[C@H]2C3)c1 (single isomer, unassigned)	0.328			inactive	
CN1CCN(CCCN(c2nc3cc(F)c(F)cc3[nH]2)[C@@H]2CCC3(c4cccc(CN5CCN(C)CC5)c4)C[C@@H]3C2)CC1 (single isomer, unassigned)				inactive	
CN1CCN(CCCN(c2nc3cc(Cl)c(Cl)cc3[nH]2)[C@@H]2CCC3(c4cccc(CN5CCOCC5)c4)C[C@@H]3C2)CC1 (single isomer, unassigned)	0.0142			inactive	
CN1CCN(CCCN(c2nc3cc(F)c(Cl)cc3[nH]2)[C@@H]2CC[C@]3(c4cccc(C#N)c4)C[C@H]23)CC1		92	77	inactive	Inhibition (Mus musculus [6]): 5%; Inhibition (Mus musculus [7]): 13%; Inhibition (Mus musculus [8]): 21%; Kb [10]: 0.01 µM; Inhibition (Mus musculus [9]): 19%
CN1CCN(CCCN(c2nc3cc(F)c(F)cc3[nH]2)[C@@H]2CC[C@]3(c4cccc(CN5CC[C@H](O)C5)c4)C[C@@H]3C2)CC1	0.441			inactive	
CN1CCN(CCCN(c2nc3cc(Cl)c(Cl)cc3[nH]2)[C@@H]2CC[C@]3(c4ccc(C#N)cc4)C[C@H]23)CC1	0.0114			inactive	
CN1CCN(CCCN(c2nc3cc(F)c(F)cc3[nH]2)[C@@H]2CC[C@]3(c4cccc(CN5CCC[C@H]5CO)c4)C[C@@H]3C2)CC1				inactive	
CN1CCN(CCCN(c2nc3cc(F)c(F)cc3[nH]2)[C@@H]2CCC3(c4cccc(CO)c4)C[C@@H]3C2)CC1 (single isomer, unassigned)				inactive	
CN1CCN(CCCN(c2nc3cc(F)c(F)cc3[nH]2)[C@@H]2CCC3(c4cccc(CN5CCCC5)c4)C[C@@H]3C2)CC1 (single isomer, unassigned)	0.0257			inactive	
CN1CCN(CCCN(c2nc3cc(F)c(F)cc3[nH]2)[C@@H]2CCC3(c4cccc(C#N)c4)C[C@@H]3C2)CC1 (single isomer, unassigned)		37	17	inactive	AUC [3]: 293 ng·h/mL
CS(=O)(=O)N1CCC(CN(c2nc3cc(F)c(Cl)cc3[nH]2)[C@@H]2CCC3(c4cccc(C#N)c4)C[C@@H]3C2)CC1 (single isomer, unassigned)	0.0067			inactive	
CN1CCN(CCCN(c2nc3cc(F)c(C(F)(F)F)cc3[nH]2)[C@@H]2CC[C@]3(c4ccc(C#N)cc4)C[C@H]23)CC1	0.0086	100	94		AUC [3]: 2800 ng·h/mL; Kb [10]: 0.043 µM
CN1CCN(CCCN(c2nc3cc(F)c(F)cc3[nH]2)[C@@H]2CCC3(c4cccc(C=O)c4)C[C@@H]3C2)CC1 (single isomer, unassigned)	0.0163			inactive	
CN1CCN(CCCN(c2nc3cc(F)c(F)cc3[nH]2)[C@@H]2CCC3(c4cccc(CN5CCCCC5)c4)C[C@@H]3C2)CC1 (single isomer, unassigned)				inactive	
CN1CCN(CCCN(c2nc3cc(Cl)c(F)cc3[nH]2)[C@@H]2CC[C@]3(c4ccc(C#N)cc4)C[C@H]23)CC1	0.0049				
CS(=O)(=O)N1CCC(CN(c2nc3cc(Cl)c(Cl)cc3[nH]2)[C@@H]2CCC3(c4cccc(C#N)c4)C[C@@H]3C2)CC1 (single isomer, unassigned)	0.0015	12	0	inactive	
